Results taken from US20240310388A1, “DIAGNOSTIC METHODS FOR HIDRADENITIS SUPPURATIVA” (AMGEN INC., priority 2023, published 2024).

Experiments:
[1] = tested on: HS patients; test: Phase 2 clinical study (NCT03852472): safety and tolerability; type: in vivo, human
Experimental: The study was a randomized, double-blind, placebo-controlled, three group Phase 2 trial in 435 subjects with moderate to severe hidradenitis suppurativa (Hurley stage II or III). Subjects were randomized 1:1:1 to a treatment of 10 mg avacopan twice daily, 30 mg avacopan twice daily or a placebo twice daily for 12 weeks. Following the 12 weeks double-blind treatment period, subjects on placebo were re-randomized 1:1 to receive 10 mg or 30 mg avacopan twice daily for additional 24 weeks. Subjects treated with avacopan continued to receive the same dose (either 10 mg or 30 mg twice daily) for additional 24 weeks.
Subjects were on study treatment for 36 weeks and were followed for 8 weeks for assessment of safety and efficacy. The primary efficacy analysis was at 12 weeks.

[2] = tested on: subjects with moderate to severe hidradenitis suppurativa (Hurley stage II or III); test: Phase 2 clinical study (NCT03852472, AURORA): HiSCR, AN count, DF count and IHS4 at Week 12; type: in vivo, human; conditions: for HiSCR response rate % (n/N): biomarker sample subset of AURORA (n = 68 HS patients), placebo 25
Experimental: The study was a randomized, double-blind, placebo-controlled, three group Phase 2 trial in 435 subjects with moderate to severe hidradenitis suppurativa (Hurley stage II or III). Subjects were randomized 1:1:1 to a treatment of 10 mg avacopan twice daily, 30 mg avacopan twice daily or a placebo twice daily for 12 weeks. Following the 12 weeks double-blind treatment period, subjects on placebo were re-randomized 1:1 to receive 10 mg or 30 mg avacopan twice daily for additional 24 weeks. Subjects treated with avacopan continued to receive the same dose (either 10 mg or 30 mg twice daily) for additional 24 weeks. Subjects were on study treatment for 36 weeks and were followed for 8 weeks for assessment of safety and efficacy. The primary efficacy analysis was at 12 weeks. The primary efficacy endpoint assessed by the proportion of subjects achieving Hidradenitis Suppurativa Clinical Response (HiSCR) at Week 12. • At least 18 years of age • Clinical diagnosis of HS (Hurley Stage II or III), confirmed by a dermatologist, for at least 6 months prior to Screening • HS lesions are present in at least 2 distinct anatomic areas • Inadequate or loss of response to a systemic course of antibiotics typically of at least 90 days • Must have at least 5 inflammatory nodules or abscesses at screening • Use adequate birth control for subject and partners of child bearing potential • Willing and able to give written Informed Consent • Pregnant or breast-feeding • Any other skin disease that may interfere with the assessment of HS • Rapidly progressive, expanding HS within 30 days prior to screening • More than 20 draining fistulae at screening • Any anti-TNF-α treatment for HS or for other conditions prior to Day 1 visit will be prohibited. Exception: Subjects who were previously treated with an anti-TNF-α drug and discontinued treatment >12 weeks prior to Day 1 visit are allowed for enrollment • Systemic antibiotics are generally excluded • Topical antibiotics use within 14 days prior to Day 1 is excluded • Have started a topical prescription medicine for HS within 14 days prior to screening • A systemic medicine for HS, including biologics and other systemic therapies • Have received within 14 days prior to Day 1 visit or is expected to require oral or transdermal opioid analgesics (except for tramadol) for any reason The proportion of subjects achieving HiSCR at Week 12 is calculated as those subjects having at least a 50% reduction from baseline in abscess and inflammatory nodule (AN) count, with no increase in abscess count and no increase in draining fistula count number at Week 12 divided by the total number of subjects with non-missing value in each treatment group. p-values are obtained from a Cochran-Mantel-Haenszel (CMH) test stratified by stratification factors Hurley Stage (Stage II vs. III), and anti-TNF drug use (Treatment naïve vs. Previous treatment). Plasma samples were collected at baseline prior to the start of treatment from 68 enrolled HS patients in phase II AURORA study (NCT03852472) and from 20 independent age and gender matched healthy controls.

In the case of `Cc1ccc(NC(=O)[C@H]2CCCN(C(=O)c3c(C)cccc3F)[C@H]2c2ccc(NC3CCCC3)cc2)cc1C(F)(F)F` [avacopan], the safety and tolerability [1] was “safe and well tolerated”, the “% Difference (avacopan − placebo) in HiSCR” value (shortened to “% Difference”) ([2]; Hurley Stage II, Week 12, avacopan 10 mg BID) was −13.9% and the “% Adjusted difference (avacopan − placebo) in HiSCR” value (shortened to “% Adjusted difference”) ([2]; Hurley Stage II, Week 12, avacopan 10 mg BID, 95% CI (−26.8, −0.2)) was −13.8%. For the same molecule, the “HiSCR Responder Rate, n/N” value ([2]; Hurley Stage II, Week 12, avacopan 10 mg BID, placebo 35.3, p=0.0473) was 21.4%, the “HiSCR Responder Rate, n/N” value ([2]; Hurley Stage II, Week 12, avacopan 10 mg BID, placebo 35.3, p=0.0473, listed as Avacopan) was 18/84 (21.4) % and the “% Difference” value ([2]; Hurley Stage II, Week 12, avacopan 30 mg BID) was −4.3%. The “% Adjusted difference” value ([2]; Hurley Stage II, Week 12, avacopan 30 mg BID, 95% CI (−18.1, 9.6)) was −4.3%, the “HiSCR Responder Rate, n/N” value ([2]; Hurley Stage II, Week 12, avacopan 30 mg BID, placebo 35.3, p=0.5469) was 27/87 (31.0) % and the “HiSCR Responder Rate, n/N” value ([2]; Hurley Stage III (ITT1), Week 12, avacopan 10 mg BID, placebo 22.2) was 24.0%. The “HiSCR Responder Rate, n/N” value ([2]; Hurley Stage III (ITT1), Week 12, avacopan 10 mg BID, placebo 22.2, listed as Avacopan) was 12/50 (24) %, the “HiSCR Responder Rate, n/N” value ([2]; Hurley Stage III (ITT1), Week 12, avacopan 30 mg BID, placebo 22.2, p=0.0349 (text)) was 42.6% and the “HiSCR Responder Rate, n/N” value ([2]; Hurley Stage III (ITT1), Week 12, avacopan 30 mg BID, placebo 22.2, p=0.0349 (text), listed as Avacopan) was 20/47 (42.6) %. For the same molecule, the “IHS4, AN, draining fistula and abscess count” value ([2]; Hurley Stage III patients, week 12) was “consistent reduction”, the “% Difference” value ([2]; Hurley Stage III, Week 12, avacopan 10 mg BID) was 1.8% and the “% Adjusted difference” value ([2]; Hurley Stage III, Week 12, avacopan 10 mg BID, 95% CI (−15.3, 18.3)) was 1.8%. For the same molecule, the “% Difference” value ([2]; Hurley Stage III, Week 12, avacopan 30 mg BID) was 20.3%, the “% Adjusted difference” value ([2]; Hurley Stage III, Week 12, avacopan 30 mg BID, 95% CI (1.6, 37.9)) was 20.8% and the “percentage reduction in IHS4 Score” value ([2]; Hurley Stage III, Week 12, avacopan 30 mg BID, placebo 20.7%) was 36.9%. For the same molecule, the “percentage reduction in AN count” value ([2]; Hurley Stage III, Week 12, avacopan 30 mg BID, placebo 23.7%) was 40.8%, the “percentage reduction in DF count” value ([2]; Hurley Stage III, Week 12, avacopan 30 mg BID, placebo 24.0%) was 45.2% and the “HiSCR response rate % (n/N)” value ([2]; avacopan 10 mg) was 29.2 (7/24) %. The “HiSCR response rate % (n/N)” value ([2]; avacopan 30 mg) was 54.2 (13/24) % and the “improvement in HiSCR vs. placebo” value ([2]; pre-specified Hurley Stage III (severe HS) patients at 12 weeks) was “statistically significant dose-dependent improvement”.
